The text below walks through data of patent publication US9290468B2, “Benzoheterocyclic compounds and use thereof” (SHANGHAI KECHOW PHARMA, INC., priority 2012, dated 2016).

Molecules are shown by their SMILES.

The subject of assay [1] is Interleukin-4 (IL-4). Nature of the assay: Inhibition of Interleukin-4 (IL-4), GFP+ of CD4+ spleen cells by flow cytometry. The settings on record: Mus musculus, 48 h, read-out: IL-4 inhibition. A general note: Flow cytometry measures light scatter and fluorescence of single cells or particles in a stream.
Method: Take spleens of BALB/c gene reported mice, culture in RPMI1640 medium (HyClone). • 2. Spleen will be ground into single cell suspension, add red blood cell lysis buffer (sigma) to suspension, for cracking the red blood cells. • 3. […] Dissolved compounds with DMSO and diluted with RPMI1640 medium containing 10% serum, diluted to a final concentration of 200 nM. • 5. […] After mixing, cells were added to 96 well plates, every hole is 100 μL. […] Each compound and control is three-hole wells, cultured at 37° C. for 48 h. • 6. After 48 h, the plates removed from the incubator and each well was collected in the flow tube (BD). • 7. Added cells to ice pre-cooling of PBS (phosphate buffer solution) solution to wash, and in 100 μL of PBS, join the fluorescent antibody CD4 0.5 μL, put in ice 15 min avoid light. • 8. After dyeing wash antibodies with the ice pre-cooling PBS solution. And prepare for flow cytometric detection. • 9. Using flow cytometry (BD FACS calibur) select the CD4+ cell populations, and detect GFP+ cells accounted for the percentage of CD4+ cells, to determine the impact of compounds on IL-4. • 10.
(§1) Control was DMSO and its concentration was same as the final concentration of test compounds.
The subject of assay [2] is TNF-α. Nature of the assay: Inhibition of TNF-α expression, LPS-stimulated spleen cells, ELISA. The note with it: Mus musculus, 24 h, read-out: Inhibition of TNF-α expression. On the technique in general: ELISA stands for enzyme-linked immunosorbent assay.
Method: Take spleens of BALB/c gene reported mice, cultured in RPMI1640 medium (HyClone). Spleen was ground into single cell suspension, added red blood cell lysis buffer (sigma) to suspension, for cracking the red blood cells • 2. […] Dissolved compounds with DMSO and diluted with RPMI1640 medium containing 10% serum, diluted to a final concentration of 200 nM. • 4. Cells were added to 96 well plates, every hole was 100 μL. […] Each compound and control is three-hole wells. • 5. Cultured at 37° C. for 24 h. • 6. […] Using ELISA (enzyme-linked immunosorbent assay) technique for the determination of the amount of TNF-α in the 24 hours.
as §1
Assay [3] relates to HT29 human colon cancer cells xenograft. Nature of the assay: In vivo anti-tumor efficacy in HT29 tumor xenograft model. Details: species or system BALB/c nude mice. The note with it: 20 mg/kg, oral gavage once daily, after 16 days of treatment, HT29 xenograft in nude mice.
Method: Female BALB/c nude mice of 5-6 week old were used for all the in vivo efficacy studies. Mice were injected with HT29 human colon cancer cells at 5×10^6 cells per 100 μL SFM into right flank. Tumor volumes were monitored by caliper measurement using the formula: tumor volume (mm^3)=(w^2×l)/2, where w=width and c=length in mm of the tumor. When the tumor volumes reached 150˜300 mm^3, mice were randomized to treatment groups (5˜10 mice per group) to receive compounds (20 mg/kg doses) or vehicle by oral gavage once daily for 16 days. The tumor volumes and body weight were measured every 2-3 days for data analysis. Tumor growth inhibition (TGI) and body weight changes were calculated compared to the vehicle treated groups.
Assay [4] deals with COLO 205 tumor xenograft. In words: In vivo anti-tumor efficacy in COLO205 tumor xenograft model.
Assay [5] concerns A375 cells. Nature of the assay: Cell growth inhibition assay (MTT), A375 cells. The assay is classed as cell-based. The note with it: Homo sapiens, A-375, 72 h.
Method: (§2) When the HT29 cells reach their exponential phase of growth, 4×10^3 cells/well were plated into 96-well plates, the edge of plates were filled with sterility PBS, at the same time, filled three holds only with medium as blank group. • 2. The plates were cultured in a humidified 5% CO2 incubator at 37° C. for 24 h, and allowed to proliferate for reaching their exponential phase of growth. • 3. Samples were dissolved in DMSO (dimethyl sulfoxide), the concentration of Samples is 10 mmol/L, 1 mmol/L, 100 μmol/L, 10 μmol/L, 1 μmol/L, 0.1 μmol/L, and further diluted with cell culture medium. The final does concentration were 10 μmol/L, 1 μmol/L, 100 nmol/L, 10 nmol/L, 1 nmol/L, 0.1 nmol/L, 0 nmol/L (the control group). The final DMSO concentration used was 1‰ of total volume of medium in all treatments, including the control group. • Blank: medium • Control: the same dose of DMSO with experiment. Group, the DMSO was diluted with cell perfect culture medium. • Experiment: the cells were treated with the concentration of 10 μmol/L, 1 μmol/L, 100 nmol/L, 10 nmol/L, 1 nmol/L, 0.1 nmol/L. • 4. The plates were cultured in a humidified 5% CO2 incubator at 37° C. for 72 h. 20 μL of 3-(4,5-dimethylthiazol-2-yl)-2,5-diphenyltetrazolium bromide (MTT) reagent (5 mg/mL) in phosphate buffered serum (PBS) was added to each well. • 5. The plates were cultured in a humidified 5% CO2 incubator at 37° C. for 4 h. Subsequently, the solution was aspirated and 150 uL dimethyl sulfoxide was added to release the formed formazan crystals from the living cells mitochondria into the solution. • 6. After moderated shaking for 3 min, absorbance was measured at 490 nm using microplate reader. Methods 2 (A375) • 1. When the A375 cells reach their exponential phase of growth, 5×10^3 cells/well were plated into 96-well plates, the edge of plates were filled with sterility PBS, at the same time, filled three holds only with medium as blank group. • 2. The plates were cultured in a humidified 5% CO2 incubator at 37° C. for 24 h. Allowed to proliferate for reaching their exponential phase of growth. • 3. Samples were dissolved in DMSO (Dimethyl Sulfoxide), the concentration of Samples is 10 mmol/L, 1 mmol/L, 100 μmol/L, 10 μmol/L, 1 μmol/L, 0.1 μmol/L, and further diluted with cell culture medium. The final does concentration were 10 μmol/L, 1 μmol/L, 100 nmol/L, 10 nmol/L, 1 nmol/L, 0.1 nmol/L, 0 nmol/L (the control group). The final DMSO concentration used was 1‰ of total volume of medium in all treatments, including the control group. • Blank: medium • Control: the same dose of DMSO with experiment group, the DMSO was diluted with cell perfect culture medium • Experiment: the cells were treated with the concentration of 10 μmol/L, 1 μmol/L, 100 nmol/L, 10 nmol/L, 1 nmol/L, 0.1 nmol/L • 4. The plates were cultured in a humidified 5% CO2 incubator at 37° C. for 72 h. 20 μL of 3-(4,5-dimethylthiazol-2-yl)-2,5-diphenyltetrazolium bromide (MTT) reagent (5 mg/mL) in phosphate buffered serum (PBS) was added to each well. • 5. The plates were cultured in a humidified 5% CO2 incubator at 37° C. for 4 h. Subsequently, the solution was aspirated and 150 uL dimethyl sulfoxide was added to release the formed formazan crystals from the living cells mitochondria into the solution. • 6. After moderated shaking for 3 min, absorbance was measured at 490 nm using microplate reader.
Assay [6] relates to HT29 cells. Nature of the assay: Cell growth inhibition assay (MTT), HT29 cells. It is filed as cell-based. The note with it: Homo sapiens, HT-29, 72 h.
Method: as §2
Where [7] appears, read: 10 mg/kg QD by gavage x 18 days.

Consider `O=C(NOCCO)c1cc2snnc2c(F)c1Nc1ccc(Br)cc1F` [Compound 43, 5-((4-bromo-2-fluorophenyl)amino)-4-fluoro-N-(2-hydroxyethoxy)benzo[d][1,2,3]thiadiazole-6-carboxamide], for which the inhibition (in general, how much of the control response was suppressed) at 0.1 µM was not above 50% in assay [1] and not above 40% in assay [2].

Take `O=C(NOCCO)c1cc2scnc2c(F)c1Nc1ccc(Br)cc1F` [Compound 34, 4-fluoro-5-((2-fluoro-4-bromophenyl)amino)-N-(2-hydroxyethoxy)benzo[d]thiazol-6-carboxamide]: the inhibition at 0.1 µM in assay [1] is not above 50%; in assay [2], not above 40%.

As to `Cn1cnc2c(F)c(Nc3ccc(Br)cc3Cl)c(C(=O)NOCCO)cc21` [AZD6244, reference compound], the “Tumor growth inhibition (TGI)” value in assay [3] amounted to 48.3%.

`Cn1cnc2c(F)c(Nc3ccc(Br)cc3Cl)c(C(=O)NOCCO)cc21` [Reference compound 1, reference compound]: the “Tumor growth inhibition vs vehicle control group” value in assay [4] (setting [7]) amounted to 72.80%.

`O=C(NOCC(O)CO)c1cc2snnc2c(F)c1Nc1ccc(I)cc1F` (centres unmarked) [Compound 18, N-(2,3-dihydroxypropoxy)-4-fluoro-5-((2-fluoro-4-iodophenyl)amino)benzo[d][1,2,3]thiadiazole-6-carboxamide]: the IC50 (as a rule, the point on the concentration scale where inhibition reaches its midpoint) in assay [5] was found to be 16.8 nM; in assay [6], 66.4 nM.

Consider `O=C(NOCC(O)CO)c1cc2snnc2c(F)c1Nc1ccc(Br)cc1Cl` (centres unmarked) [Compound 20, 5-((4-bromo-2-chlorophenyl)amino)-N-(2,3-dihydroxypropoxy)-4-fluorobenzo[d][1,2,3]thiadiazole-6-carboxamide], for which the half-inhibitory concentration (IC50) came to 97.3 nM in assay [5] and 687 nM in assay [6].

For `O=S(=O)(Nc1cc2ocnc2c(F)c1Nc1ccc(Br)cc1Cl)C1(CC(O)CO)CC1` (centres unmarked) [Compound 8, N-(5-((4-bromo-2-chlorophenyl)amino)-4-fluorobenzo[d]oxazol-6-yl)-1-(2,3-dihydroxypropyl)cyclopropane-1-sulfonamide], the half-inhibitory concentration (IC50) is 738 nM in assay [5] and 1090 nM in assay [6].

Take `O=S(=O)(Nc1cc2snnc2c(F)c1Nc1ccc(Br)cc1Cl)C1(CC(O)CO)CC1` (centres unmarked) [Compound 24, N-(5-((4-bromo-2-chlorophenyl)amino)-4-fluorobenzo[d][1,2,3]thiadiazol-6-yl)-1-(2,3-dihydroxypropyl)cyclopropane-1-sulfonamide]: the IC50 in assay [5] is 992 nM; in assay [6] it was 4370 nM.

Take `O=C(NOCCO)c1cc2ocnc2c(F)c1Nc1ccc(Br)cc1Cl` [Compound 3, 5-((4-bromo-2-chlorophenyl)amino)-4-fluoro-N-(2-hydroxyethoxy)benzo[d]oxazole-6-carboxamide]: the 50% inhibitory concentration (IC50) in assay [5] turned out to be 61.3 nM; in assay [6], 51.8 nM. Further, the figures for the inhibition at 0.1 µM in assay [1] and in assay [2] were not above 50% and not above 40%, respectively. Further, the “Tumor growth inhibition vs vehicle control group” value in assay [4] (20 mg/kg QD by gavage x 18 days) is 47.11%. In assay [3], the “Tumor growth inhibition (TGI)” value is recorded as 32.3%.

Take `O=S(=O)(Nc1cc2scnc2c(F)c1Nc1ccc(I)cc1F)C1CC1` [Compound 13, N-(4-fluoro-5-((2-fluoro-4-iodophenyl)amino)benzo[d]thiazol-6-yl)cyclopropanesulfonamide]: the IC50 in assay [5] was 207 nM; in assay [6], 98.3 nM.

For `O=S(=O)(Nc1cc2snnc2c(F)c1Nc1ccc(I)cc1F)C1(CC(O)CO)CC1` (centres unmarked) [Compound 22, 1-(2,3-dihydroxypropyl)-N-(4-fluoro-5-((2-fluoro-4-iodophenyl)amino)benzo[d][1,2,3]thiadiazol-6-yl)cyclopropane-1-sulfonamide], the IC50 turned out to be 1160 nM in assay [5] and 2620 nM in assay [6].

For the compound `O=C(NOCC(O)CO)c1cc2ocnc2c(F)c1Nc1ccc(Br)cc1Cl` (centres unmarked) [Compound 4, 5-((4-bromo-2-chlorophenyl)amino)-N-(2,3-dihydroxypropoxy)-4-fluorobenzo[d]oxazole-6-carboxamide], the 50% inhibitory concentration (IC50) worked out at 97.5 nM in assay [5] and 138 nM in assay [6].

As for `O=S(=O)(Nc1cc2scnc2c(F)c1Nc1ccc(Br)cc1Cl)C1(CC(O)CO)CC1` (centres unmarked) [Compound 16, N-(5-((4-bromo-2-chlorophenyl)amino)-4-fluorobenzo[d]thiazol-6-yl)-1-(2,3-dihydroxypropyl)cyclopropane-1-sulfonamide], the half-maximal inhibitory concentration (IC50) is 151 nM in assay [5] and 1310 nM in assay [6].

With `O=S(=O)(Nc1cc2snnc2c(F)c1Nc1ccc(Br)cc1Cl)C1CC1` [Compound 23, N-(5-((4-bromo-2-chlorophenyl)amino)-4-fluorobenzo[d][1,2,3]thiadiazol-6-yl)cyclopropanesulfonamide], the concentration for half-maximal inhibition (IC50) in assay [5] is 562 nM; in assay [6], 3640 nM.

With `O=C(NOCCO)c1cc2snnc2c(F)c1Nc1ccc(Br)cc1Cl` [Compound 19, 5-((4-bromo-2-chlorophenyl)amino)-4-fluoro-N-(2-hydroxyethoxy)benzo[d][1,2,3]thiadiazole-6-carboxamide], the IC50 in assay [5] amounted to 49.4 nM; in assay [6], 65.7 nM. For the same compound, the inhibition at 0.1 µM in assay [1] was not above 50%; in assay [2], not above 40%. For the same compound, the “Tumor growth inhibition vs vehicle control group” value in assay [4] (setting [7]) is listed as 86.22%. For the same compound, the “Tumor growth inhibition (TGI)” value in assay [3] is 50.9%.

For the compound `O=S(=O)(Nc1cc2ocnc2c(F)c1Nc1ccc(I)cc1F)C1CC1` [Compound 5, N-(4-fluoro-5-((2-fluoro-4-iodophenyl)amino)benzo[d]oxazol-6-yl)cyclopropanesulfonamide], the IC50 in assay [5] came to 125 nM; in assay [6] it was 81.6 nM.

Turning to `O=C(NOCC(O)CO)c1cc2scnc2c(F)c1Nc1ccc(Br)cc1Cl` (centres unmarked) [Compound 12, N-(2,3-dihydroxypropoxy)-4-fluoro-5-((4-bromo-2-chlorophenyl)amino)benzo[d]thiazole-6-carboxamide], the IC50 came out at 174 nM in assay [5] and 738 nM in assay [6].

On to `O=S(=O)(Nc1cc2snnc2c(F)c1Nc1ccc(I)cc1F)C1CC1` [Compound 21, N-(4-fluoro-5-((2-fluoro-4-iodophenyl)amino)benzo[d][1,2,3]thiadiazol-6-yl)cyclopropanesulfonamide], for which the IC50 is 1770 nM in assay [5] and 1080 nM in assay [6].

As for `O=C(NOCCO)c1cc2ocnc2c(F)c1Nc1ccc(Br)cc1F` [Compound 25, 4-fluoro-5-((2-fluoro-4-bromophenyl)amino)-N-(2-hydroxyethoxy)benzo[d]oxazole-6-carboxamide], the results for the inhibition at 0.1 µM in assay [1] and in assay [2] were not above 50% and not above 40%, respectively.

In the case of `O=C(NOCCO)c1cc2ocnc2c(F)c1Nc1ccc(I)cc1F` [Compound 1, 4-fluoro-5-((2-fluoro-4-iodophenyl)amino)-N-(2-hydroxyethoxy)benzo[d]oxazole-6-carboxamide], the figures for the IC50 in assay [5] and in assay [6] were 0.85 nM and 2.3 nM, respectively. For the same compound, the inhibition at 0.1 µM is not above 50% in assay [1] and not above 40% in assay [2]. For the same compound, in assay [4] (setting [7]), the “Tumor growth inhibition vs vehicle control group” value is 91.22%. Also, in assay [3], the “Tumor growth inhibition (TGI)” value is 55.1%.

On to `O=S(=O)(Nc1cc2ocnc2c(F)c1Nc1ccc(Br)cc1Cl)C1CC1` [Compound 7, N-(5-((4-bromo-2-chlorophenyl)amino)-4-fluorobenzo[d]oxazol-6-yl)cyclopropanesulfonamide], for which the values for the IC50 in assay [5] and in assay [6] were 239 nM and 283 nM, respectively.

On to `O=C(NOCC(O)CO)c1cc2ocnc2c(F)c1Nc1ccc(I)cc1F` (centres unmarked) [Compound 2, N-(2,3-dihydroxypropoxy)-4-fluoro-5-((2-fluoro-4-iodophenyl)amino)benzo[d]oxazole-6-carboxamide], for which the IC50 was 4.6 nM in assay [5] and 8.1 nM in assay [6].

Turning to `O=C(NOCCO)c1cc2scnc2c(F)c1Nc1ccc(Br)cc1Cl` [Compound 11, 5-((4-bromo-2-chlorophenyl)amino)-4-fluoro-N-(2-hydroxyethoxy)benzo[d]thiazole-6-carboxamide], the IC50 is 61.4 nM in assay [5] and 51.2 nM in assay [6]. The figures for the inhibition at 0.1 µM in assay [1] and in assay [2] were not above 50% and not above 40%, respectively. Moreover, the “Tumor growth inhibition vs vehicle control group” value in assay [4] (setting [7]) amounted to 82.14%. Also, the “Tumor growth inhibition (TGI)” value in assay [3] is given as 68.51%.

With `O=S(=O)(Nc1cc2scnc2c(F)c1Nc1ccc(Br)cc1Cl)C1CC1` [Compound 15, N-(5-((4-bromo-2-chlorophenyl)amino)-4-fluorobenzo[d]thiazol-6-yl)cyclopropanesulfonamide], the IC50 in assay [5] was found to be 99.8 nM; in assay [6], 184 nM.

As to `O=S(=O)(Nc1cc2ocnc2c(F)c1Nc1ccc(I)cc1F)C1(CC(O)CO)CC1` (centres unmarked) [Compound 6, 1-(2,3-dihydroxypropyl)-N-(4-fluoro-5-((2-fluoro-4-iodophenyl)amino)benzo[d]oxazol-6-yl)cyclopropane-1-sulfonamide], the IC50 was 103 nM in assay [5] and 78.3 nM in assay [6].

On to `O=S(=O)(Nc1cc2scnc2c(F)c1Nc1ccc(I)cc1F)C1(CC(O)CO)CC1` (centres unmarked) [Compound 14, 1-(2,3-dihydroxypropyl)-N-(4-fluoro-5-((2-fluoro-4-iodophenyl)amino)benzo[d]thiazol-6-yl)cyclopropane-1-sulfonamide], for which the IC50 was 119 nM in assay [5] and 201 nM in assay [6].

Regarding `O=C(NOCC(O)CO)c1cc2scnc2c(F)c1Nc1ccc(I)cc1F` (centres unmarked) [Compound 10, N-(2,3-dihydroxypropoxy)-4-fluoro-5-((2-fluoro-4-iodophenyl)amino)benzo[d]thiazole-6-carboxamide], the figures for the IC50 in assay [5] and in assay [6] were 11.2 nM and 18.5 nM, respectively.
